Data taken from US10689378B2, “Triazolopyridine compounds and uses thereof” (Novartis AG, priority 2016, dated 2020).
pIC50: −log10 of the molar value.

Key:
[1] = molecular target: T1, EED (1-441)-His protein (Homo sapiens, UniProt O75530); test: EED-H3K27Me3 peptide competition binding assay by AlphaScreen; conditions: read-out: (a) IC50, EED Alphascreen binding Qualified
T1 construct: 30 nM EED (1-441)-His protein
Protocol: EED-H3K27Me3 Peptide Competition Binding Assay by AlphaScreen (α-Screen)
To assess the compounds' potency in the EED-H3K27Me3 competition binding assay, compounds were serially diluted 3-fold in DMSO to obtain a total of twelve concentrations. Then compounds at each concentration (75 nL of each) were transferred by Mosquito into a 384-well Perkin Elmer ProxiPlate 384 plus plates. 8 uL of solutions containing 30 nM EED (1-441)-His protein and 15 nM biotin-H3K27Me3 (19-33) peptide in the buffer (25 mM HEPES, pH 8, 0.02% Tween-20, 0.5% BSA) were added to the wells and then incubated with compound for 20 min. AlphaScreen detection beads mix was prepared immediately before use by mixing nickel chelate acceptor beads and streptavidin donor beads in a 1:1 ratio (Perkin Elmer, Product No. 6760619C/M/R) into the buffer described above. Then 4 μL of detection beads mix was added to the plate and incubate in the dark at the rt for 1 h. The final concentration of donor and acceptor beads was 10 μg/mL for each. Plates were read on EnVision (PerkinElmer) using the AlphaScreen setting adapted for optimal signal detection with a 615 nm filter, after sample excitation at 680 nm. The emission signal at 615 nm was used to quantify compounds inhibition. AlphaScreen signals were normalized based on the reading coming from the positive (maximum signal control) and negative controls (minimum signal control) to give percentage of activities left. The data were then fit to a dose response equation using the program Helios (Novartis) to get the IC50 values. Helios is a Novartis in-house assay data analysis software using the methods described by Normolle, D. P., Statistics in Medicine, 12:2025-2042 (1993); Formenko, I. et al, Computer Methods and Programs in Biomedicine, 82, 31-37 (2006); Sebaugh, J. L., Pharmaceutical Statistics, 10:128-134 (2011); Kelly, C. et al., Biometrics, 46(4):1071-1085 (1990); and Kahm, M. et al., Journal of Statistical Software, 33 (7): (2010) (grofit: Fitting Biological Growth Curves with R, pages 1-21, available at http://www.jstatsoft.org/).

[2] = tested on: H3K27 methylation in G401 cell; test: ELISA (H3K27 methylation) assay in G401 cells; assay type: cell-based, human; conditions: Homo sapiens, G-401, read-out: (c) IC50, ELISA Qualified
Protocol: Compounds of the present invention were assessed for their ability to inhibit PRC2 activity in a pentameric complex of EZH2, SUZ12, EED, Rbap48 and AEBP in biochemical assays. The ability of compounds of the present invention to inhibit cellular activity of PRC2 was assessed by analysing histone H3 lysine 27 methylation in human cell lines. The ability of compounds of the present invention to inhibit cancers was derived from their ability to modulate activity in human cancer cell lines bearing specific dependence to PRC2 activity to maintain cancerous growth.
ELISA (H3K27 Methylation) Assay
Representative compounds of the present invention were serially and separately diluted 3-fold in DMSO to obtain a total of eight or twelve concentrations. Then the compounds were added to G401 cell cultured in 384-well plate at 1:500 dilution to obtain the highest concentration of 20 μM. The cells were further cultured for 48 h before ELISA procedure.
Histone extraction: Cells, in 384-well plate, were washed with PBS (10×PBS buffer (80 g NaCl (Sigma, S3014), 2 g KCl (Sigma, 60128), 14.4 g Na2HPO4 (Sigma, S5136), 2.4 g KH2PO4 (Sigma, P9791) to 1 L water, pH to 7.4) and lysed with the addition of lysis buffer (0.4N HCl; 45 μL per well). The plate was gently agitated at 4° C. for 30 min. The cell lysate was neutralized with neutralization buffer (0.5 M sodium phosphate dibasic, pH 12.5, 1 mM DTT; 36 μL per well). The plate was agitated to ensure the lysates were well mixed prior to the ELISA protocol.
ELISA protocol: Cell lysates were transferred to the wells of a 384-well plate and the final volume was adjusted to 50 μL per well with PBS. The plate was sealed, centrifuged at 2,000 rpm for 2 min and incubated at 4° C. for about 16 h. The plate was washed with TBST buffer (1×TBS (10×TBS: 24.2 g Tris (Sigma, T6066), 80 g NaCl (Sigma, S3014) to 1 L of water and adjust pH to 7.6 with HCl) with 0.1% Tween-20). Blocking buffer (TBST, 5% BSA; 50 μL per well) was added and the plate was incubated for 1 h at rt. The blocking buffer was removed and primary antibody was added (30 μL per well). The following dilutions were performed with blocking buffer: for anti-H3K27me3 antibody (Cell Signaling Technology, #9733), dilution was 1:1000; for anti-H3K27me2 antibody (Cell Signaling Technology, #9288), dilution was 1:100; for anti-H3 antibody (Abcam, Cat #24834), dilution was 1:1000. The primary antibody was incubated in the plate at rt for 1 h. The wells were washed with TBST and incubated with secondary antibody for 1 h at rt. For secondary antibodies, the following dilutions were carried out with blocking buffer: anti-rabbit antibody (Jackson ImmunoResearch, #111-035-003), dilution was 1:2000; and anti-mouse antibody (Cell signaling technology, #7076), dilution was 1:1000. After 1 h of incubation at rt, the wells were washed with TBST. ECL substrate (Pierce, #34080) was added at 30 μL per well and the plates were centrifuged at 2,000 rpm for 2 min. The signal was read using a PerkinElmer Envision Reader. The H3K27 methylation readouts were normalized using H3 signal and then percentage inhibition was calculated against the samples treated with DMSO. The data were then fit to a dose response curve using the program Helios to get the IC50 values of the test compound.

T1 sequence (O75530 whole entry): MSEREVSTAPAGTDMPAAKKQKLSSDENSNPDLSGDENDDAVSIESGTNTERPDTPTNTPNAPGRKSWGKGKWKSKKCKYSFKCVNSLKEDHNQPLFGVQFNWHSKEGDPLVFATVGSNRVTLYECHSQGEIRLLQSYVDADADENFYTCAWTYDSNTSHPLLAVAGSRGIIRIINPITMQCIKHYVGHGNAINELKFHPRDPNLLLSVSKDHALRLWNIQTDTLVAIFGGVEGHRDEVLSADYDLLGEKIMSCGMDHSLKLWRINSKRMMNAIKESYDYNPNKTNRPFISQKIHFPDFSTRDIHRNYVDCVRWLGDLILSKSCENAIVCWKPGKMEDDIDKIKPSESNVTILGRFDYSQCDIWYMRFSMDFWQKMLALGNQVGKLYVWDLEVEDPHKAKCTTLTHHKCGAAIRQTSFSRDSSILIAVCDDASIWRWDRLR

COc1cc(F)ccc1CNc1ccc(-c2ccc(S(=O)(=O)N(C)C)cc2)c2nncn12 [Example 84, 4-(5-((4-fluoro-2-methoxybenzyl)amino)-[1,2,4]triazolo[4,3-a]pyridin-8-yl)-N,N-dimethylbenzene sulfonamide]
pIC50 [1]: 6.75
pIC50 [2]: 5.93

COc1cc(F)ccc1CNc1ccc(-c2ccc(NS(C)(=O)=O)cc2)c2nncn12 [Example 85, N-(4-(5-((4-fluoro-2-methoxybenzyl)amino)-[1,2,4]triazolo[4,3-a]pyridin-8-yl)phenyl)methane sulfonamide]
pIC50 [1]: 6.73
pIC50 [2]: 5.99

COc1c(F)cccc1CNc1ccc(-c2ccc(CN(C)C)cc2)c2nncn12 [Example 86, 8-(4-((dimethylamino)methyl)phenyl)-N-(3-fluoro-2-methoxybenzyl)-[1,2,4] triazolo[4,3-a]pyridin-5-amine]
pIC50 [1]: 6.66
pIC50 [2]: 6.28

COc1cc(F)ccc1CNc1ccc(-c2ccc(N3CCN(C(C)C)CC3)nc2)c2nncn12 [Example 88, N-(4-fluoro-2-methoxybenzyl)-8-(6-(4-isopropylpiperazin-1-yl)pyridin-3-yl)-[1,2,4] triazolo[4,3-a]pyridin-5-amine]
pIC50 [1]: 6.75
pIC50 [2]: 6.30

COc1cc(F)ccc1CNc1ccc(-c2ccc(S(N)(=O)=O)cc2)c2nncn12 [Example 89, 4-(5-((4-fluoro-2-methoxybenzyl)amino)-[1,2,4]triazolo[4,3-a]pyridin-8-yl)benzenesulfonamide]
pIC50 [1]: 6.88
pIC50 [2]: 5.83

COc1cc(F)ccc1CNc1ccc(-c2cnc(N3CCN(C(C)C)CC3)c(C(F)(F)F)c2)c2nncn12 [Example 90, N-(4-fluoro-2-methoxybenzyl)-8-(6-(4-isopropylpiperazin-1-yl)-5-(trifluoromethyl)pyridin-3-yl)-[1,2,4]triazolo[4,3-a] pyridin-5-amine]
pIC50 [1]: 6.39
pIC50 [2]: 5.67

COc1cc(F)ccc1CNc1ccc(-c2ccncc2)c2nncn12 [Example 92, N-(4-fluoro-2-methoxybenzyl)-8-(pyridin-4-yl)-[1,2,4]triazolo[4,3-a]pyridin-5-amine]
pIC50 [1]: 6.86
pIC50 [2]: 6.52

COc1cc(F)ccc1CNc1ccc(-c2cccnc2)c2nncn12 [Example 93, N-(4-fluoro-2-methoxybenzyl)-8-(pyridin-3-yl)-[1,2,4]triazolo[4,3-a]pyridin-5-amine]
pIC50 [1]: 6.79
pIC50 [2]: 6.40

COc1ccccc1CNc1ccc(-c2cncc(S(C)(=O)=O)c2)c2nncn12 [Example 95, N-(2-methoxybenzyl)-8-(5-(methylsulfonyl)pyridin-3-yl)-[1,2,4]triazolo[4,3-a] pyridin-5-amine]
pIC50 [1]: 6.75
pIC50 [2]: 6.79

COc1cc(F)ccc1CNc1ccc(-c2ccc(C(=O)N3CCCC3)cc2)c2nncn12 [Example 96, (4-(5-((4-fluoro-2-methoxy benzyl)amino)-[1,2,4]triazolo[4,3-a]pyridin-8-yl)phenyl)(pyrrolidin-1-yl) methanone]
pIC50 [1]: 6.98
pIC50 [2]: 6.60

COc1cc(F)ccc1CNc1ccc(-c2cnc(N3CCN(C(C)C)CC3)c(Cl)c2)c2nncn12 [Example 97, 8-(5-chloro-6-(4-isopropylpiperazin-1-yl)pyridin-3-yl)-N-(4-fluoro-2-methoxybenzyl)-[1,2,4]triazolo[4,3-a] pyridin-5-amine]
pIC50 [1]: 6.98
pIC50 [2]: 6.11

COc1cc(CNc2ccc(-c3ccc(CN(C)C)cc3)c3nncn23)c(F)cc1F [Example 98, N-(2,4-difluoro-5-methoxybenzyl)-8-(4-((dimethylamino)methyl)phenyl)-[1,2,4]triazolo[4,3-a] pyridin-5-amine]
pIC50 [1]: 6.44
pIC50 [2]: 6.54

COc1ccc(F)c(CNc2ccc(-c3ccncc3)c3nncn23)c1 [Example 99, N-(2-fluoro-5-methoxybenzyl)-8-(pyridin-4-yl)-[1,2,4]triazolo[4,3-a] pyridin-5-amine]
pIC50 [1]: 6.59
pIC50 [2]: 6.41

COc1cc(F)c(F)cc1CNc1ccc(-c2ccc(CN(C)C)cc2)c2nncn12 [Example 103, N-(4,5-difluoro-2-methoxybenzyl)-8-(4-((dimethylamino)methyl)phenyl)-[1,2,4]triazolo[4,3-a] pyridin-5-amine]
pIC50 [1]: 5.54
pIC50 [2]: 5.09

COc1cc(F)ccc1CNc1ccc(-c2cnc(N3CCN(C(C)C)CC3)nc2)c2nncn12 [Example 104, N-(4-fluoro-2-methoxybenzyl)-8-(2-(4-isopropylpiperazin-1-yl)pyrimidin-5-yl)-[1,2,4]triazolo[4,3-a] pyridin-5-amine]
pIC50 [1]: 6.80
pIC50 [2]: 6.88

COc1ccccc1CNc1ccc(-c2c(C)nn(C)c2C)c2nncn12 [Example 110, N-(2-methoxybenzyl)-8-(1,3,5-trimethyl-1H-pyrazol-4-yl)-[1,2,4]triazolo[4,3-a] pyridin-5-amine]
pIC50 [1]: 6.90
pIC50 [2]: 7.13

COc1ccc(F)cc1CNc1ccc(-c2ccc(S(C)(=O)=O)nc2)c2nncn12 [Example 115, N-(5-fluoro-2-methoxybenzyl)-8-(6-(methylsulfonyl)pyridin-3-yl)-[1,2,4]triazolo[4,3-a] pyridin-5-amine]
pIC50 [1]: 6.08
pIC50 [2]: 6.16

COc1ccc(F)cc1CNc1ccc(-c2ccc(S(C)(=O)=O)cc2)c2nncn12 [Example 116, N-(5-fluoro-2-methoxybenzyl)-8-(4-(methylsulfonyl)phenyl)-[1,2,4]triazolo[4,3-a]pyridin-5-amine]
pIC50 [1]: 6.56
pIC50 [2]: 6.13

COc1ccc(F)cc1CNc1ccc(-c2ccncc2)c2nncn12 [Example 117, N-(5-fluoro-2-methoxybenzyl)-8-(pyridin-4-yl)-[1,2,4]triazolo[4,3-a]pyridin-5-amine]
pIC50 [1]: 6.07
pIC50 [2]: 6.05

COc1ccc(F)cc1CNc1ccc(-c2cccnc2)c2nncn12 [Example 118, N-(5-fluoro-2-methoxybenzyl)-8-(pyridin-3-yl)-[1,2,4]triazolo[4,3-a]pyridin-5-amine]
pIC50 [1]: 5.90
pIC50 [2]: 5.90

COc1c(F)cccc1CNc1ccc(-c2ccc(S(C)(=O)=O)cc2)c2nncn12 [Example 119, N-(3-fluoro-2-methoxybenzyl)-8-(4-(methylsulfonyl)phenyl)-[1,2,4]triazolo[4,3-a]pyridin-5-amine]
pIC50 [1]: 6.17
pIC50 [2]: 5.29
